# Experimental data reported in US7388111B2, “Non-nucleoside reverse transcriptase inhibitors” (Roche Palo Alto LLC, priority 2005, dated 2008).
# Target: HIV-1 RT (Human immunodeficiency virus type 1 group M subtype B, UniProt P03366)
# Test: HIV Reverse Transcriptase Assay: Inhibitor IC50 Determination
# Format: biochemical
# Details: purified recombinant enzyme, poly(rA)/oligo(dT)16 template-primer, 37° C. 30 min
# Protocol: HIV Reverse Transcriptase Assay: Inhibitor IC50 Determination
# HIV-1 RT assay was carried out in 96-well Millipore MultiScreen MADVNOB50 plates using purified recombinant enzyme and a poly(rA)/oligo(dT)16 template-primer in a total volume of 50 μL. The assay constituents were 50 mM Tris/HCl, 50 mM NaCl, 1 mM EDTA, 6 mM MgCl2, 5 μM dTTP, 0.15 μCi [^3H] dTTP, 5 μg/ml poly (rA) pre annealed to 2.5 μg/ml oligo (dT)16 and a range of inhibitor concentrations in a final concentration of 10% DMSO. Reactions were initiated by adding 4 nM HIV-1 RT and after incubation at 37° C. for 30 min, they were stopped by the addition of 50 μl ice cold 20% TCA and allowed to precipitate at 4° C. for 30 min. The precipitates were collected by applying vacuum to the plate and sequentially washing with 3×200 μl of 10% TCA and 2×200 μl 70% ethanol. Finally, the plates were dried and radioactivity counted in a Packard TopCounter after the addition of 25 μl scintillation fluid per well. IC50's were calculated by plotting % inhibition versus log10 inhibitor concentrations.
row,SMILES,IC50
1,"Cc1cc(S(N)(=O)=O)ccc1NC(=O)Cc1ccc(Oc2ccc(C#N)cc2C)c(C)c1C [Compound I-23, 2-[4-(4-Cyano-2-methyl-phenoxy)-2,3-dimethyl-phenyl]-N-(2-methyl-4-sulfamoyl-phenyl)-acetamide]",0.252 µM
2,"N#Cc1cc(Cl)cc(Oc2ccc(CC(=O)Nc3ccc(S(N)(=O)=O)cc3Br)cc2Br)c1 [Compound I-50, 2-[3-Bromo-4-(3-chloro-5-cyano-phenoxy)-phenyl]-N-(2-bromo-4-sulfamoyl-phenyl)-acetamide]",0.0135 µM
3,"N#Cc1cc(Oc2ccc(CC(=O)Nc3ccc(S(N)(=O)=O)cc3Cl)cc2Br)cc(C(F)F)c1 [Compound I-63, 2-[3-Bromo-4-(3-cyano-5-difluoromethyl-phenoxy)-phenyl]-N-(2-chloro-4-sulfamoyl-phenyl)-acetamide]",0.0531 µM
4,"COc1cc(CC(=O)Nc2ccc(S(N)(=O)=O)cc2C)ccc1Oc1cc(Cl)cc(C#N)c1 [Compound I-51, 2-[4-(3-Chloro-5-cyano-phenoxy)-3-methoxy-phenyl]-N-(2-methyl-4-sulfamoyl-phenyl)-acetamide]",1.8 µM
5,"COc1cc(CC(=O)Nc2ccc(S(N)(=O)=O)cc2Cl)ccc1Oc1cc(Cl)cc(C#N)c1 [Compound I-52, 2-[4-(3-Chloro-5-cyano-phenoxy)-3-methoxy-phenyl]-N-(2-chloro-4-sulfamoyl-phenyl)-acetamide]",0.518 µM
6,"N#Cc1cc(Oc2ccc(CC(=O)Nc3ccc(S(N)(=O)=O)cc3Br)cc2Br)cc(C(F)F)c1 [Compound I-64, 2-[3-Bromo-4-(3-cyano-5-difluoromethyl-phenoxy)-phenyl]-N-(2-bromo-4-sulfamoyl-phenyl)-acetamide]",0.0612 µM
7,"COc1cc(CC(=O)Nc2ccc(S(N)(=O)=O)cc2Br)ccc1Oc1cc(Cl)cc(C#N)c1 [Compound I-53, N-(2-Bromo-4-sulfamoyl-phenyl)-2-[4-(3-chloro-5-cyano-phenoxy)-3-methoxy-phenyl]-acetamide]",0.394 µM
8,"Cc1cc(S(N)(=O)=O)ccc1NC(=O)Cc1ccc(Oc2ccc(C#N)cc2C)c(Cl)c1 [Compound I-43, 2-[3-Chloro-4-(4-cyano-2-methyl-phenoxy)-phenyl]-N-(2-methyl-4-sulfamoyl-phenyl)-acetamide]",0.695 µM
9,"N#Cc1cc(Cl)cc(Oc2ccc(CC(=O)Nc3ccc(S(N)(=O)=O)cc3Cl)cc2Cl)c1 [Compound I-39, 2-[3-Chloro-4-(3-chloro-5-cyano-phenoxy)-phenyl]-N-(2-chloro-4-sulfamoyl-phenyl)-acetamide]",0.0926 µM
10,"COc1cc(CC(=O)Nc2ccc(S(N)(=O)=O)cc2Br)ccc1Oc1ccc(C#N)cc1C [Compound I-56, N-(2-Bromo-4-sulfamoyl-phenyl)-2-[4-(4-cyano-2-methyl-phenoxy)-3-methoxy-phenyl]-acetamide]",0.282 µM
11,"N#Cc1cc(C#N)cc(Oc2ccc(CC(=O)Nc3ccc(S(N)(=O)=O)cc3Br)cc2Cl)c1 [Compound I-21, N-(2-Bromo-4-sulfamoyl-phenyl)-2-[3-chloro-4-(3,5-dicyano-phenoxy)-phenyl]-acetamide]",0.159 µM
12,"COc1cc(CC(=O)Nc2ccc(S(N)(=O)=O)cc2Cl)ccc1Oc1ccc(C#N)cc1C [Compound I-55, N-(2-Chloro-4-sulfamoyl-phenyl)-2-[4-(4-cyano-2-methyl-phenoxy)-3-methoxy-phenyl]-acetamide]",0.419 µM
13,"N#Cc1cc(Cl)cc(Oc2ccc(CC(=O)Nc3ccc(S(N)(=O)=O)cc3)cc2Br)c1 [Compound I-46, 2-[3-Bromo-4-(3-chloro-5-cyano-phenoxy)-phenyl]-N-(4-sulfamoyl-phenyl)-acetamide]",6 µM
14,"Cc1cc(S(N)(=O)=O)ccc1NC(=O)Cc1ccc(Oc2cc(C#N)ccc2Cl)c(Cl)c1 [Compound I-35, 2-[3-Chloro-4-(2-chloro-5-cyano-phenoxy)-phenyl]-N-(2-methyl-4-sulfamoyl-phenyl)-acetamide]",0.395 µM
15,"N#Cc1cc(Cl)cc(Oc2ccc(CC(=O)Nc3ccc(S(N)(=O)=O)cc3Cl)cc2Br)c1 [Compound I-48, 2-[3-Bromo-4-(3-chloro-5-cyano-phenoxy)-phenyl]-N-(2-chloro-4-sulfamoyl-phenyl)-acetamide]",0.0191 µM
16,"Cc1cc(S(N)(=O)=O)ccc1NC(=O)Cc1ccc(Oc2c(Cl)cccc2Cl)c(Cl)c1 [Compound I-41, 2-[3-Chloro-4-(2,6-dichloro-phenoxy)-phenyl]-N-(2-methyl-4-sulfamoyl-phenyl)-acetamide]",0.162 µM
17,"N#Cc1ccc(Cl)c(Oc2ccc(CC(=O)Nc3ccc(S(N)(=O)=O)cc3Cl)cc2Cl)c1 [Compound I-36, 2-[3-Chloro-4-(2-chloro-5-cyano-phenoxy)-phenyl]-N-(2-chloro-4-sulfamoyl-phenyl)-acetamide]",0.104 µM

row,SMILES,IC50
1,"Cc1c(CC(=O)Nc2ccc(S(N)(=O)=O)cc2Cl)ccc(Oc2cc(Cl)cc(C#N)c2)c1C [Compound I-18, 2-[4-(3-Chloro-5-cyano-phenoxy)-2,3-dimethyl-phenyl]-N-(2-chloro-4-sulfamoyl-phenyl)-acetamide]",0.111 µM
2,"Cc1c(CC(=O)Nc2ccc(S(N)(=O)=O)cc2Br)ccc(Oc2cc(Cl)cc(C#N)c2)c1C [Compound I-33, N-(2-Bromo-4-sulfamoyl-phenyl)-2-[4-(3-chloro-5-cyano-phenoxy)-2,3-dimethyl-phenyl]-acetamide]",0.0843 µM
3,"Cc1cc(S(N)(=O)=O)ccc1NC(=O)Cc1ccc(Oc2cc(Cl)cc(C#N)c2)c(Cl)c1 [Compound I-38, 2-[3-Chloro-4-(3-chloro-5-cyano-phenoxy)-phenyl]-N-(2-methyl-4-sulfamoyl-phenyl)-acetamide]",0.806 µM
4,"Cc1ccccc1NC(=O)Cc1ccc(Oc2cc(Cl)ccc2Br)c(Cl)c1 [Compound I-7, 2-[4-(2-Bromo-5-chloro-phenoxy)-3-chloro-phenyl]-N-o-tolyl-acetamide]",0.832 µM
5,"O=C(Cc1ccc(Oc2cc(Cl)ccc2Br)c(Cl)c1)Nc1ccccc1Cl [Compound I-6, 2-[4-(2-Bromo-5-chloro-phenoxy)-3-chloro-phenyl]-N-(2-chloro-phenyl)-acetamide]",0.17 µM
6,"N#Cc1cc(C#N)cc(Oc2ccc(CC(=O)Nc3ccccc3Br)cc2Cl)c1 [Compound I-20, N-(2-Bromo-phenyl)-2-[3-chloro-4-(3,5-dicyano-phenoxy)-phenyl]-acetamide]",2.38 µM
7,"Cc1c(CC(=O)Nc2ccc(S(N)(=O)=O)cc2)ccc(Oc2cc(Cl)cc(C#N)c2)c1C [Compound I-65, 2-[4-(3-Chloro-5-cyano-phenoxy)-2,3-dimethyl-phenyl]-N-(4-sulfamoyl-phenyl)-acetamide]",3.12 µM
8,"Cc1cc(S(N)(=O)=O)ccc1NC(=O)Cc1ccc(Oc2cc(Cl)cc(C#N)c2)c(C)c1C [Compound I-66, 2-[4-(3-Chloro-5-cyano-phenoxy)-2,3-dimethyl-phenyl]-N-(2-methyl-4-sulfamoyl-phenyl)-acetamide]",0.0817 µM
9,"Cc1cc(S(N)(=O)=O)ccc1NC(=O)Cc1ccc(Oc2cc(Cl)cc(C#N)c2)c(Br)c1 [Compound I-47, 2-[3-Bromo-4-(3-chloro-5-cyano-phenoxy)-phenyl]-N-(2-methyl-4-sulfamoyl-phenyl)-acetamide]",0.339 µM
10,"NS(=O)(=O)c1ccc(NC(=O)Cc2ccc(Oc3c(Cl)cccc3Cl)c(Cl)c2)c(Cl)c1 [Compound I-45, 2-[3-Chloro-4-(2,6-dichloro-phenoxy)-phenyl]-N-(2-chloro-4-sulfamoyl-phenyl)-acetamide]",0.0634 µM
11,"Cc1cc(S(N)(=O)=O)ccc1NC(=O)Cc1ccc(Oc2cc(C#N)cc(C(F)F)c2)c(Br)c1 [Compound I-62, 2-[3-Bromo-4-(3-cyano-5-difluoromethyl-phenoxy)-phenyl]-N-(2-methyl-4-sulfamoyl-phenyl)-acetamide]",0.116 µM
12,"O=C(Cc1ccc(Oc2cc(Cl)ccc2Br)c(Cl)c1)Nc1ccccc1F [Compound I-8, 2-[4-(2-Bromo-5-chloro-phenoxy)-3-chloro-phenyl]-N-(2-fluoro-phenyl)-acetamide]",5.81 µM
13,"COc1cc(CC(=O)Nc2ccc(S(N)(=O)=O)cc2C)ccc1Oc1ccc(C#N)cc1C [Compound I-54, 2-[4-(4-Cyano-2-methyl-phenoxy)-3-methoxy-phenyl]-N-(2-methyl-4-sulfamoyl-phenyl)-acetamide]",2.44 µM
14,"Cc1cc(OCCCS(N)(=O)=O)ccc1NC(=O)Cc1ccc(Oc2cc(Cl)ccc2Br)c(Cl)c1 [Compound I-5, 2-[4-(2-Bromo-5-chloro-phenoxy)-3-chloro-phenyl]-N-[2-methyl-4-(3-sulfamoyl-propoxy)-phenyl]-acetamide]",0.148 µM
15,"Cc1cc(C#N)ccc1Oc1ccc(CC(=O)Nc2ccc(S(N)(=O)=O)cc2Cl)cc1Cl [Compound I-44, 2-[3-Chloro-4-(4-cyano-2-methyl-phenoxy)-phenyl]-N-(2-chloro-4-sulfamoyl-phenyl)-acetamide]",0.0715 µM
16,"N#Cc1cc(Cl)cc(Oc2ccc(CC(=O)Nc3ccc(CS(N)(=O)=O)cc3)cc2Br)c1 [Compound I-49, 2-[3-Bromo-4-(3-chloro-5-cyano-phenoxy)-phenyl]-N-(4-sulfamoylmethyl-phenyl)-acetamide]",2.35 µM
17,"Cc1cc(C#N)ccc1Oc1ccc(CC(=O)Nc2ccc(S(N)(=O)=O)cc2Cl)c(C)c1C [Compound I-25, N-(2-Chloro-4-sulfamoyl-phenyl)-2-[4-(4-cyano-2-methyl-phenoxy)-2,3-dimethyl-phenyl]-acetamide]",0.157 µM

# System: not given
# Test: not given
# Details: not given
row,SMILES,melting point
1,"N#Cc1cc(Cl)cc(Oc2ccc(CC(=O)Nc3ccc(S(N)(=O)=O)cc3Br)cc2Br)c1 [Compound I-50, 2-[3-Bromo-4-(3-chloro-5-cyano-phenoxy)-phenyl]-N-(2-bromo-4-sulfamoyl-phenyl)-acetamide]",168.1 to 170.4 °C
2,"N#Cc1cc(Cl)cc(Oc2ccc(CC(=O)Nc3ccc(S(N)(=O)=O)cc3Cl)cc2Br)c1 [Compound I-48, 2-[3-Bromo-4-(3-chloro-5-cyano-phenoxy)-phenyl]-N-(2-chloro-4-sulfamoyl-phenyl)-acetamide]",205 to 207.3 °C
3,"Cc1cc(S(N)(=O)=O)ccc1NC(=O)Cc1ccc(Oc2cc(Cl)cc(C#N)c2)c(Br)c1 [Compound I-47, 2-[3-Bromo-4-(3-chloro-5-cyano-phenoxy)-phenyl]-N-(2-methyl-4-sulfamoyl-phenyl)-acetamide]",214.6 to 215.9 °C
4,"N#Cc1cc(Cl)cc(Oc2ccc(CC(=O)Nc3ccc(CS(N)(=O)=O)cc3)cc2Br)c1 [Compound I-49, 2-[3-Bromo-4-(3-chloro-5-cyano-phenoxy)-phenyl]-N-(4-sulfamoylmethyl-phenyl)-acetamide]",133.4 to 135.3 °C
